Read-outs that look alike come from different tables or passages of the source.
Legend:
[1] = molecular target: T1, N-type calcium channel α1B (Cav2.2), β3 and α2δ subunits (Homo sapiens, UniProt Q00975); assay: Functional assay, antagonism of N-type calcium channel (FDSS calcium mobilization response to KCl depolarization); assay type: cell-based; settings: for inhibition at 0.33 µM: 0.33 μM compound, FDSS, 50 mM KCl; for IC50: HEK stable cell line, 50 mM KCl depolarization, six-point concentration-response
T1 construct: expressed in transfected cells
T1 sequence (Q00975 whole entry): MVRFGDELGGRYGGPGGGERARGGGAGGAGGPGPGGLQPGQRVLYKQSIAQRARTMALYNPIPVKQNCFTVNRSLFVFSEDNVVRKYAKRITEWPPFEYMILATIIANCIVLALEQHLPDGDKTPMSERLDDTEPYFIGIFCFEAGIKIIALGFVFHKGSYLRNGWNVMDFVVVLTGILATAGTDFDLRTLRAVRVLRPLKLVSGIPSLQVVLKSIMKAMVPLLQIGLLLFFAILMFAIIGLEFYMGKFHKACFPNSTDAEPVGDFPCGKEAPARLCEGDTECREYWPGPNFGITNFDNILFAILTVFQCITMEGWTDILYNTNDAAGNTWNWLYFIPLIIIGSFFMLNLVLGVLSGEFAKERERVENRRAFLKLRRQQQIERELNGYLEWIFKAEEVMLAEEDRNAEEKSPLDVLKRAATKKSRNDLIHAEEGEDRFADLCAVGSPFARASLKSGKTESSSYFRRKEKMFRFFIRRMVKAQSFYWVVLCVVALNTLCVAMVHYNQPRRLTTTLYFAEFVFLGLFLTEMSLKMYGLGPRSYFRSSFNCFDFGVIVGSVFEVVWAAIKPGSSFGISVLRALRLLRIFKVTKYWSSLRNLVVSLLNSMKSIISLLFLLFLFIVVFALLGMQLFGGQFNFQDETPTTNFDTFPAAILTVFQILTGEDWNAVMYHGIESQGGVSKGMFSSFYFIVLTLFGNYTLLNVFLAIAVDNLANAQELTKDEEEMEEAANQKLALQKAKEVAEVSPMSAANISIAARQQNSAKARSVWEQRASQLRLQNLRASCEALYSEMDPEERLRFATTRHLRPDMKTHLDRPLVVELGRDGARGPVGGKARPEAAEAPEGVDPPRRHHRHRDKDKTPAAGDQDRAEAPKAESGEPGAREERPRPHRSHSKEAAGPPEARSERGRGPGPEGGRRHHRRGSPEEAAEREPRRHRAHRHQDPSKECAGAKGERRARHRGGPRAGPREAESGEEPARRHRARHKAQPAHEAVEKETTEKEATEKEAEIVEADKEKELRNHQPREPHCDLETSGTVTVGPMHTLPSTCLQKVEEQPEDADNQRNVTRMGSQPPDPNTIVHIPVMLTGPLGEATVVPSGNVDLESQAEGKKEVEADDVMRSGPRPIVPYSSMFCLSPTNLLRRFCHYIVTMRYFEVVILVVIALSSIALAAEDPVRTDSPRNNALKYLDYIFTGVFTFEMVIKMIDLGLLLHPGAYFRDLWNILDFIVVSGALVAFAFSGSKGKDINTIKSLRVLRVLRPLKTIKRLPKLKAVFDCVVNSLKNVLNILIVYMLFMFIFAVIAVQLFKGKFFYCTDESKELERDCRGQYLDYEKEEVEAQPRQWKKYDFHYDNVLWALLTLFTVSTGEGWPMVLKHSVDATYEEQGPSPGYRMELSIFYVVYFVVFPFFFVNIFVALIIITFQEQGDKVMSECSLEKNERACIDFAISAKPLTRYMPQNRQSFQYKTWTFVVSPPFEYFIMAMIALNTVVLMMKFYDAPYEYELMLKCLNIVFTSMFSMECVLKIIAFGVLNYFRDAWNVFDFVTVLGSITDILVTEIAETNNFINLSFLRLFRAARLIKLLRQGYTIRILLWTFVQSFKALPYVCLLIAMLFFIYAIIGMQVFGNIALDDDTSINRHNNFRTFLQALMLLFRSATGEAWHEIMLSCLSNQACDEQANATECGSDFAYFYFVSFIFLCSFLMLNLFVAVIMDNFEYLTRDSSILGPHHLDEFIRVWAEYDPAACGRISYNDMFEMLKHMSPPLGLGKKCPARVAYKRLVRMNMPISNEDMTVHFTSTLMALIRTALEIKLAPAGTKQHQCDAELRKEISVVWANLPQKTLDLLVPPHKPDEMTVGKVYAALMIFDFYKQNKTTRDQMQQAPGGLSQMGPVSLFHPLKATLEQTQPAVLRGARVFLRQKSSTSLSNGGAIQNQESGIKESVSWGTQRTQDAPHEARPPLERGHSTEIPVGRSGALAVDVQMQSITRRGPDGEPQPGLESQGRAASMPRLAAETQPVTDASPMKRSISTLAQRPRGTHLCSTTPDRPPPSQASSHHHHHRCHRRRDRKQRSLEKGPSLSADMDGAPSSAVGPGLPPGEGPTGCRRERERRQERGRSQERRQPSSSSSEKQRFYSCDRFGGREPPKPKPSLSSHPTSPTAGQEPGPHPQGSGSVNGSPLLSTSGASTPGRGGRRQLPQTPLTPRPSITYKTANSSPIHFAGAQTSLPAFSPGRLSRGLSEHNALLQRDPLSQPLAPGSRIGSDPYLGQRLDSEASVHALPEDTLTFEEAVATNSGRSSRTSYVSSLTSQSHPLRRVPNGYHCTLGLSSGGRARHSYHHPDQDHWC
T1 sequence (P54284 whole entry partner): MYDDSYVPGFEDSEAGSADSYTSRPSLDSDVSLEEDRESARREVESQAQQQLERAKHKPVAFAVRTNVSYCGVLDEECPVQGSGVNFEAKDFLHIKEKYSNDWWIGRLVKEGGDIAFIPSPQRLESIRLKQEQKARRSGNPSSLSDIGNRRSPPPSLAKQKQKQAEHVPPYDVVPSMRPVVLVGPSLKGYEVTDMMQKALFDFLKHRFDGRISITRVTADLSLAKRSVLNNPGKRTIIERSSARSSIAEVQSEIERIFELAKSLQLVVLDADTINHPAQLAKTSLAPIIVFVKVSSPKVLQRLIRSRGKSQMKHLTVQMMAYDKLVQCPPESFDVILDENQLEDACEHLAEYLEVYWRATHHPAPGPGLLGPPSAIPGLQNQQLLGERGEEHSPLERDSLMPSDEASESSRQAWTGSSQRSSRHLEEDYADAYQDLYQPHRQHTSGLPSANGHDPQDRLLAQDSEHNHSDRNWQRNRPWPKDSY
T1 sequence (P54289 25-956 partner limits assumed): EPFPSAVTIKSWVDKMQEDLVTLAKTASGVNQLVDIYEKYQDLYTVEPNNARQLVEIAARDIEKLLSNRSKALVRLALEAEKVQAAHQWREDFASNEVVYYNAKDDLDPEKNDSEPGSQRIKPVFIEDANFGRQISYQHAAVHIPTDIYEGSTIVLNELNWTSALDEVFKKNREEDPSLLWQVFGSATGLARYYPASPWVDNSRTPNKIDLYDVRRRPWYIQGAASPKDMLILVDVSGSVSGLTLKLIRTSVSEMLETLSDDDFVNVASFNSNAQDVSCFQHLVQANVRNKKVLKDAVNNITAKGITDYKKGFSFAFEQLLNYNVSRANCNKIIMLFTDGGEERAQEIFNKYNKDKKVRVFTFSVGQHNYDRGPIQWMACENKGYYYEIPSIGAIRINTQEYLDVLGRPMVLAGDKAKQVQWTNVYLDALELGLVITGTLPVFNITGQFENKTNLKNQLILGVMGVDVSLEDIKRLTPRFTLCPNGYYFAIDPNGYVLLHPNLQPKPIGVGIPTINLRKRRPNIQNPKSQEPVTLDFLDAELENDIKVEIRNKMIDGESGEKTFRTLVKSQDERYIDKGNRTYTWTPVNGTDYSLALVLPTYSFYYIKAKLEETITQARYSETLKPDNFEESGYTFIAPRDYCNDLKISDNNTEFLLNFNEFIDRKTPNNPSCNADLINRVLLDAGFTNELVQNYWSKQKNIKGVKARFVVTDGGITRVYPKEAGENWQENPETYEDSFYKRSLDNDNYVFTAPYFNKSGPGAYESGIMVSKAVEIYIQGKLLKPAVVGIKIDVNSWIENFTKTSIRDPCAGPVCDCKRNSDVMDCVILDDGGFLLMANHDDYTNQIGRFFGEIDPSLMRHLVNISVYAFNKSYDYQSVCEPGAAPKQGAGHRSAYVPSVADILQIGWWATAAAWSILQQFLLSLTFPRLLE
T1 sequence (P54289 957-1103 partner limits assumed): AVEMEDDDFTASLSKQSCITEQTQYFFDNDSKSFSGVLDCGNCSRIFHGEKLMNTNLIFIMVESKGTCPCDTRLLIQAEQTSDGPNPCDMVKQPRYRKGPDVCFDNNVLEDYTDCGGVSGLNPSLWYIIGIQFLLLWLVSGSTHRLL
Outline: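 HEK cells stably co-expressing α1B (Cav2.2), β3 and α2δ subunits were loaded with calcium dye, preincubated with compound for 5 min, then depolarized with 50 mM KCl and read for 3 min by FDSS fluorescence. IC50 from six-point curves, normalized to KCl maximum and buffer minimum.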

N-type calcium channel = molecular target: T2, N-type calcium channel (Homo sapiens, UniProt Q00975); assay: Automated electrophysiology assay (QPatch-HT whole-cell patch clamp); assay type: cell-based
T2 construct: expressed in transfected cells
T2 sequence (Q00975 whole entry): as the sequence (Q00975 whole entry) above
T2 sequence (P54284 whole entry partner): as the sequence (P54284 whole entry partner) above
T2 sequence (P54289 25-956 partner limits assumed): as the sequence (P54289 25-956 partner limits assumed) above
T2 sequence (P54289 957-1103 partner limits assumed): as the sequence (P54289 957-1103 partner limits assumed) above
Outline: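 Whole-cell QPatch recordings used 10 mM Ba²⁺/TEA external solution and CsCl internal solution. Trains of 15 pulses at 5 Hz to +20 mV from −80 mV were applied; 1st- and 15th-pulse currents were normalized to control, with CdCl2 zeroing. […]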

[2] = high frequency (15th pulse of train, 5 Hz), read-out: QPatch at High Frequency % Inhibition
[3] = low frequency (1st pulse of train), read-out: QPatch at Low Frequency % Inhibition

inhibition at 0.33 µM [1]	IC50 [1]	inhibition at 0.1 µM (N-type calcium channel; [2])	inhibition at 0.1 µM (N-type calcium channel; [3])	inhibition at 1 µM (N-type calcium channel; [2])	inhibition at 1 µM (N-type calcium channel; [3])	Structure (SMILES)
87%	28 nM	15%	4%			CC(C)CS(=O)(=O)N1Cc2nn(-c3cccc4c3OCO4)c(-c3ccc(Cl)cc3)c2C1 [Cpd 82, 2-(1,3-Benzodioxol-4-yl)-3-(4-chlorophenyl)-5-[(2-methylpropyl)sulfonyl]-2,4,5,6-tetrahydropyrrolo[3,4-c]pyrazole]
92%	20 nM	27%	12%			CC1CCN(S(=O)(=O)N2Cc3nn(-c4cccc5c4OCO5)c(-c4ccc(Cl)cc4)c3C2)CC1 [Cpd 83, 2-(1,3-Benzodioxol-4-yl)-3-(4-chlorophenyl)-5-[(4-methylpiperidin-1-yl)sulfonyl]-2,4,5,6-tetrahydropyrrolo[3,4-c]pyrazole]
94%	10 nM	7%	-3%			CC(C)S(=O)(=O)N1Cc2nn(-c3cccc4c3OCC4)c(-c3ccc(Cl)cc3)c2C1 [Cpd 84, 3-(4-Chlorophenyl)-2-(2,3-dihydro-1-benzofuran-7-yl)-5-[(1-methylethyl)sulfonyl]-2,4,5,6-tetrahydropyrrolo[3,4-c]pyrazole]
94%	14 nM	37%	13%			CC(C)CS(=O)(=O)N1Cc2nn(-c3cccc4c3OCC4)c(-c3ccc(Cl)cc3)c2C1 [Cpd 85, 3-(4-Chlorophenyl)-2-(2,3-dihydro-1-benzofuran-7-yl)-5-[(2-methylpropyl)sulfonyl]-2,4,5,6-tetrahydropyrrolo[3,4-c]pyrazole]
96%	7 nM	33%	20%			CC1CCN(S(=O)(=O)N2Cc3nn(-c4cccc5c4OCC5)c(-c4ccc(Cl)cc4)c3C2)CC1 [Cpd 86, 3-(4-Chlorophenyl)-2-(2,3-dihydro-1-benzofuran-7-yl)-5-[(4-methylpiperidin-1-yl)sulfonyl]-2,4,5,6-tetrahydropyrrolo[3,4-c]pyrazole]
89%	17 nM	49%	31%			COc1ccccc1-n1nc2c(c1-c1ccc(Cl)cc1)CN(S(=O)(=O)c1c(C)noc1C)C2 [Cpd 87, 3-(4-Chlorophenyl)-5-[(3,5-dimethylisoxazol-4-yl)sulfonyl]-2-(2-methoxyphenyl)-2,4,5,6-tetrahydropyrrolo[3,4-c]pyrazole]
96%	5 nM	47%	26%			CC(C)S(=O)(=O)N1Cc2nn(-c3ccccc3N(C)C)c(-c3ccc(Cl)cc3)c2C1 [Cpd 88, 2-[3-(4-Chlorophenyl)-5-[(1-methylethyl)sulfonyl]-5,6-dihydropyrrolo[3,4-c]pyrazol-2(4H)-yl]-N,N-dimethylaniline]
90%	28 nM	34%	10%			CCS(=O)(=O)N1Cc2nn(-c3ccccc3N(C)C)c(-c3ccc(Cl)cc3)c2C1 [Cpd 89, 2-[3-(4-Chlorophenyl)-5-(ethylsulfonyl)-5,6-dihydropyrrolo[3,4-c]pyrazol-2(4H)-yl]-N,N-dimethylaniline]
86%	16 nM	10%	14%			COc1ccccc1-n1nc2c(c1-c1ccc(Cl)nc1)CN(S(=O)(=O)C(C)C)C2 [Cpd 92, 3-(6-Chloropyridin-3-yl)-2-(2-methoxyphenyl)-5-[(1-methylethyl)sulfonyl]-2,4,5,6-tetrahydropyrrolo[3,4-c]pyrazole]
79%	50 nM	23%	-4%			CN(C)S(=O)(=O)N1Cc2nn(-c3ccccc3OCC(F)F)c(-c3ccc(Cl)cc3)c2C1 [Cpd 95, 3-(4-Chlorophenyl)-2-[2-(2,2-difluoroethoxy)phenyl]-N,N-dimethyl-2,6-dihydropyrrolo[3,4-c]pyrazole-5(4H)-sulfonamide]
67%	43 nM			60%	40%	COc1ccc(-c2c3c(nn2-c2ccccc2OC)CN(S(=O)(=O)C(C)C)C3)cn1 [Cpd 97, 2-(2-Methoxyphenyl)-3-(6-methoxypyridin-3-yl)-5-[(1-methylethyl)sulfonyl]-2,4,5,6-tetrahydropyrrolo[3,4-c]pyrazole]

Reference: patent publication US8846949B2, “Pyrrolopyrazoles as N-type calcium channel blockers” (Janssen Pharmaceutica NV, priority 2012, dated 2014)
